Assay results published in ChEMBL document CHEMBL2406991, “A novel series of metabotropic glutamate receptor 5 negative allosteric modulators based on a 4,5,6,7-tetrahydropyrazolo[1,5-a]pyridine core” (Bioorg Med Chem Lett, 2013).
Values after ≈ are worked out from the molar mass of the structure shown. Active and inactive are the calls of the source. The calls are words filed in the database; no cut-off is given here.

Legend:
[1] = target: Metabotropic glutamate receptor 5 (Rattus norvegicus, UniProt P31424); test: Negative allosteric modulation of rat mGluR5 receptor expressed in HEK293 cells assessed as intracellular calcium flux after 170 seconds by FLIPR assay; assay type: functional, cell-based
Sequence of Metabotropic glutamate receptor 5 (P31424 whole entry): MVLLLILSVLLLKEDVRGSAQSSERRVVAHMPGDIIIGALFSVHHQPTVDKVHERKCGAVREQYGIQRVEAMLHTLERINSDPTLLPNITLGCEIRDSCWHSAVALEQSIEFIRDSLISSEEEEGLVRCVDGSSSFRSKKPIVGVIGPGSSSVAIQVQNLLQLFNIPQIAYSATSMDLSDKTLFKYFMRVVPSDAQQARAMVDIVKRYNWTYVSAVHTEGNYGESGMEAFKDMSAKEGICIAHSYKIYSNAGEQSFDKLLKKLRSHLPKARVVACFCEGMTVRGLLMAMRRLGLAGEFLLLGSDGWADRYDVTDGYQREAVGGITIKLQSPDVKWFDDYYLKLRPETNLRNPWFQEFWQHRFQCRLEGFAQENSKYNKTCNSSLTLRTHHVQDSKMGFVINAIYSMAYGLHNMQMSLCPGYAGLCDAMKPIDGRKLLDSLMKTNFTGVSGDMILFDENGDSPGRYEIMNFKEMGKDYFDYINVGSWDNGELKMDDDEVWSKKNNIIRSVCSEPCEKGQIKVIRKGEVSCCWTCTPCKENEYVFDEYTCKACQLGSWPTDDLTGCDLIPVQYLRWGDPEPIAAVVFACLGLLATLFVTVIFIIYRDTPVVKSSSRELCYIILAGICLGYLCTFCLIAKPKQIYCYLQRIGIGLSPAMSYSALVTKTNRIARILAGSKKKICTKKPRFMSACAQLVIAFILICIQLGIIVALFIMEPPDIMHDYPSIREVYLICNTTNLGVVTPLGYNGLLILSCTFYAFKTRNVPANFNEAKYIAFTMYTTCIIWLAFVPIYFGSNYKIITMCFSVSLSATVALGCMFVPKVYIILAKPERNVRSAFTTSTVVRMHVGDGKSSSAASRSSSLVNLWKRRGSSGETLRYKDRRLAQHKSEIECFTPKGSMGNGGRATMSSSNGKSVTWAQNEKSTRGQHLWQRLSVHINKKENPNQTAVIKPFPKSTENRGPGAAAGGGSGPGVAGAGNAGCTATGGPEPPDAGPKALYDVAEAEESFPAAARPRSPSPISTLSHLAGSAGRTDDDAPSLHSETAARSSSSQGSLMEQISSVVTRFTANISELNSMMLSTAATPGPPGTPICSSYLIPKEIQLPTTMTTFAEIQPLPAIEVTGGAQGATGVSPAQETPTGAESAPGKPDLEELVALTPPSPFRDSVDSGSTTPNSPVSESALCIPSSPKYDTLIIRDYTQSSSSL

[2] = target: Metabotropic glutamate receptor 5 (Rattus norvegicus) (UniProt P31424); test: Partial negative allosteric modulation of rat mGluR5 receptor expressed in HEK293 cells assessed as intracellular calcium flux after 170 seconds by FLIPR assay relative to control; assay type: functional, cell-based
Sequence of Metabotropic glutamate receptor 5 (Rattus norvegicus) (P31424 21-1203 limits assumed): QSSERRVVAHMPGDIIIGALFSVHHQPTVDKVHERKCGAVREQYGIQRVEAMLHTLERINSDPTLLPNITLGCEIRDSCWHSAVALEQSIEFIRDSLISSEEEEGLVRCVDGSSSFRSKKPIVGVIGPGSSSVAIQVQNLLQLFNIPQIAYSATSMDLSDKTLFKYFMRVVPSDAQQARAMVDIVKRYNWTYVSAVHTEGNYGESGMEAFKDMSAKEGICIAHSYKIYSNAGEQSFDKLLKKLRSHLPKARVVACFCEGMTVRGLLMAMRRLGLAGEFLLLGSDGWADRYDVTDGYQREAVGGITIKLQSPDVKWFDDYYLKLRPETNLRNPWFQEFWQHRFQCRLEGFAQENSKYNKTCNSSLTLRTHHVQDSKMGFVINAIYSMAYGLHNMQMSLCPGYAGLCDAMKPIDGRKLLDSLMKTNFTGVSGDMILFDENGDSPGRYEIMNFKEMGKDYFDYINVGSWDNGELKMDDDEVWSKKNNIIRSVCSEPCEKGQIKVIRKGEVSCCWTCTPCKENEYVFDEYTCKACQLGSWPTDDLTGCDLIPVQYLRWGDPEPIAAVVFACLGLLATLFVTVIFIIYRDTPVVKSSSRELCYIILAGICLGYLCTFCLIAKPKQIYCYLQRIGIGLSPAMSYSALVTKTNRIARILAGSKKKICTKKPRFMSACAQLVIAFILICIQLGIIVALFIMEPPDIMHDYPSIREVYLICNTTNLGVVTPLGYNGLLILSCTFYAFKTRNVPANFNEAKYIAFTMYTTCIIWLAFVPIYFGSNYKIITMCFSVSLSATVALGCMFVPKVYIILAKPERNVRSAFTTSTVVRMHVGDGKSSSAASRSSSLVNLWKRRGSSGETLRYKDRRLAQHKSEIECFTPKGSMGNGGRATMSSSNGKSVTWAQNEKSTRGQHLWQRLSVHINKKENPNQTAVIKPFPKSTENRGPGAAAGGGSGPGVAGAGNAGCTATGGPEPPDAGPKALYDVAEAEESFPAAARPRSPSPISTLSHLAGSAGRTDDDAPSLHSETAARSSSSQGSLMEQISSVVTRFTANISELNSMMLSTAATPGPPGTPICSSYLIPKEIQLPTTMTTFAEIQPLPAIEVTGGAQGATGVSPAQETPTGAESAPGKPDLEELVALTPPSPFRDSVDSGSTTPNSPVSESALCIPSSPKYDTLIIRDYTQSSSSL

Cytochrome P450 3A4 = Cytochrome P450 3A4 (Homo sapiens, UniProt P08684); test: Inhibition of CYP3A4 (unknown origin); assay type: ADME
Sequence of Cytochrome P450 3A4 (P08684 whole entry): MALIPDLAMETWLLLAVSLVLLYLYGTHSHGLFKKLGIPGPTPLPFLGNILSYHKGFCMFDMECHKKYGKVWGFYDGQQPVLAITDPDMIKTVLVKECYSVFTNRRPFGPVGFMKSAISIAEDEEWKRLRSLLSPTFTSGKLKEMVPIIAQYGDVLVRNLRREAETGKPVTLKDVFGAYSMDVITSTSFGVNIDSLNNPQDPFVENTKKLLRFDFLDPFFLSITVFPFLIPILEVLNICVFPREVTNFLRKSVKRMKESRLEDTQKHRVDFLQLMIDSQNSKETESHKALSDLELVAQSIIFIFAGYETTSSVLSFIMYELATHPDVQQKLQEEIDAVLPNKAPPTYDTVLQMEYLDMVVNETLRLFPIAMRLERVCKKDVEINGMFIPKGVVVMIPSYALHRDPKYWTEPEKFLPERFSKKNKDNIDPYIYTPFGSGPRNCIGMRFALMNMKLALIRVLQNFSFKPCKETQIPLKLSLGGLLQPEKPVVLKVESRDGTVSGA

Cytochrome P450 2C9 = Cytochrome P450 2C9 (Homo sapiens, UniProt P11712); test: Inhibition of CYP2C9 (unknown origin); assay type: ADME
Sequence of Cytochrome P450 2C9 (P11712 whole entry): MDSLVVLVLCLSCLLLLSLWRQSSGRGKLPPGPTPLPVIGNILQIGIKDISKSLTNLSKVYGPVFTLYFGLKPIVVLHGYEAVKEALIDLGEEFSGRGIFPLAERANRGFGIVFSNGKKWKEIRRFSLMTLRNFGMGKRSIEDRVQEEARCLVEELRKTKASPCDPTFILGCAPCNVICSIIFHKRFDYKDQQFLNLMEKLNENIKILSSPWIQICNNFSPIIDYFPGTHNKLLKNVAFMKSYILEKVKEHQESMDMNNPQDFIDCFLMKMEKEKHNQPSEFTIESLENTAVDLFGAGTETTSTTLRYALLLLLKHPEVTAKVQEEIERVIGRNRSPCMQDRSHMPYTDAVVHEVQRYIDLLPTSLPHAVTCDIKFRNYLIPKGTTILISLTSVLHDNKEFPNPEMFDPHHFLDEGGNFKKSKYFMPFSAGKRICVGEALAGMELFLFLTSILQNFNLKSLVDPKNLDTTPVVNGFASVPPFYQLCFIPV

[3] = target: Metabotropic glutamate receptor 5 (Rattus norvegicus) (UniProt P31424); test: Displacement of [3H]MPEP from mGluR5 receptor in Sprague-Dawley rat cortical homogenate after 1 hr by liquid scintillation spectrometric analysis
[4] = Intrinsic clearance in human microsomes measured per mg of protein; assay type: ADME, Microsome
[5] = Kinetic solubility of the compound in DMSO at pH 7.4; assay type: physicochemical; conditions: read-out: Kinetic_solubility
Cytochrome P450 1A2 = target: T1, Cytochrome P450 1A2 (Homo sapiens, UniProt P05177); test: Inhibition of CYP1A2 (unknown origin); assay type: ADME
T1 sequence (P05177 whole entry): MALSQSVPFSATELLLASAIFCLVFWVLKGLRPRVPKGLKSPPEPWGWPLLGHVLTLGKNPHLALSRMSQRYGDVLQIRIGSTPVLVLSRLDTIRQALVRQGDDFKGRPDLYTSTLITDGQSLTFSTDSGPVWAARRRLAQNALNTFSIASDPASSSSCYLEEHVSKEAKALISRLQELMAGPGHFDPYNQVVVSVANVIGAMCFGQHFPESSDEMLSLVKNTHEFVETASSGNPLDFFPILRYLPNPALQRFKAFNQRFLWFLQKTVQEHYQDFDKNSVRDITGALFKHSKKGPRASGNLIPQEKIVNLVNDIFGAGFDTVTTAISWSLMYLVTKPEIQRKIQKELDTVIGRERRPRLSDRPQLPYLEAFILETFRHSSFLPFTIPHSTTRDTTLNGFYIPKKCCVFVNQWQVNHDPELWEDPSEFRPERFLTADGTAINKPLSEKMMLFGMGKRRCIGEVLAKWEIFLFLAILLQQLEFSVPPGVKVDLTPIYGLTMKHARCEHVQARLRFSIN

[6] = target: Metabotropic glutamate receptor 5 (Rattus norvegicus) (UniProt P31424); test: Inhibition of rat mGluR5 receptor expressed in HEK293 cells at 30 uM relative to control; assay type: cell-based
[7] = Intrinsic clearance in rat microsomes measured per mg of protein; assay type: ADME, Microsome
[8] = Kinetic solubility of the compound in DMSO at pH 1; assay type: physicochemical; conditions: read-out: Kinetic_solubility
Cytochrome P450 2D6 = Cytochrome P450 2D6 (Homo sapiens, UniProt P10635); test: Inhibition of CYP2D6 (unknown origin); assay type: ADME
Sequence of Cytochrome P450 2D6 (P10635 whole entry): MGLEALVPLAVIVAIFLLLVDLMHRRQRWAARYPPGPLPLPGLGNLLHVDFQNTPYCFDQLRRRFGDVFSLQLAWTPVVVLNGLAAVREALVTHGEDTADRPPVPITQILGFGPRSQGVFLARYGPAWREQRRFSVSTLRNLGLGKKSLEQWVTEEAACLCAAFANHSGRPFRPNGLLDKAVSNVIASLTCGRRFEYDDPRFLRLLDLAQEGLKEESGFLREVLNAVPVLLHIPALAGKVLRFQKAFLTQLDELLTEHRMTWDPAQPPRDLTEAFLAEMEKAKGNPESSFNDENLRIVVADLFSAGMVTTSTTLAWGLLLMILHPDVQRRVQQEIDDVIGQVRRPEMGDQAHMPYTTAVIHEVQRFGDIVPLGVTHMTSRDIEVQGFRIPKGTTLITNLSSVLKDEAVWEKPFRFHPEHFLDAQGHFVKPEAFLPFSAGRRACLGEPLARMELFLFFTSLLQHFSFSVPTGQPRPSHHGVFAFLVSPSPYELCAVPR

Plasma = test: Metabolic stability in rat plasma matrix; assay type: ADME, cell-free
Rattus norvegicus = test: Antinociceptive activity in Sprague-Dawley rat assessed as reduction in formalin-induced nocifensive behavior at 10 mg/kg, po administered 30 mins prior to formalin-challenge; assay type: functional, organism-based; set-up: dose 10 mg/kg

COc1cccnc1NC(=O)c1cc2n(n1)CCCC2
IC50 ([1]; hek293): Not Active

O=C(Nc1ccccn1)c1cc2n(n1)CCCC2
IC50 ([1]; read-out: IC50): 364 nM

O=C(Cc1ccccn1)c1cc2n(n1)CCCC2
IC50 ([1]; read-out: IC50): 390 nM

CC(=O)c1ccc(COc2cc3n(n2)CCCC3)nc1
IC50 ([1]; hek293): Not Active

Clc1ccnc(COc2cc3n(n2)CCCC3)c1
IC50 ([1]; read-out: IC50): > 10000 nM

Cc1cccc(-c2cc3n(n2)CCCC3)n1
IC50 ([1]; read-out: IC50): 1240 nM

Cc1ccnc(-c2cc3n(n2)CCCC3)c1
IC50 ([1]; read-out: IC50): 3080 nM

Clc1ccc(-c2cc3n(n2)CCCC3)cc1
IC50 ([1]; read-out: IC50): 4230 nM

Fc1cccc(-c2cc3n(n2)CCCC3)c1
IC50 ([1]; read-out: IC50): 1570 nM

Cc1ccc(-c2cc3n(n2)CCCC3)nc1
IC50 ([1]; read-out: IC50): 3000 nM

Cc1cccnc1NC(=O)c1cc2n(n1)CCCC2
IC50 ([1]; hek293): Not Active

N#Cc1ccc(-c2cc3n(n2)CCCC3)nc1
IC50 ([1]; read-out: IC50): > 10000 nM

N#Cc1ccc(COc2cc3n(n2)CCCC3)cc1
IC50 ([1]; read-out: IC50): 1610 nM

Clc1cccc(COc2cc3n(n2)CCCC3)c1
IC50 [2]: 332 nM

Nc1cccnc1NC(=O)c1cc2n(n1)CCCC2
IC50 ([1]; read-out: IC50): > 10000 nM

N#Cc1ccc(CC(=O)c2nn3c(c2C(F)(F)F)CCCC3)nc1
IC50 ([1]; read-out: IC50): 7180 nM

c1ccc(COc2cc3n(n2)CCCC3)cc1
IC50 ([1]; hek293): Not Active

c1ccc(-c2cc3n(n2)CCCC3)nc1
INH (Cytochrome P450 3A4): > 10 µM | INH (Cytochrome P450 2C9): > 10 µM | INH [3]: 1180 nM | microsomal CLint [4]: 97 µL/min/mg | solubility kinetic [5]: 180 µg/mL (≈ 903 µM) | INH (Cytochrome P450 1A2): > 10 µM | inhibition [6]: > 99% | IC50 ([1]; read-out: IC50): 1290 nM | microsomal CLint [7]: 118 µL/min/mg | solubility kinetic [8]: 170 µg/mL (≈ 853 µM) | INH (Cytochrome P450 2D6): > 10 µM

N#Cc1ccc(NC(=O)c2cc3n(n2)CCCC3)nc1
INH (Cytochrome P450 3A4): > 10 µM | INH (Cytochrome P450 2C9): > 10 µM | INH [3]: 151 nM | microsomal CLint [4]: 83 µL/min/mg | INH (Cytochrome P450 1A2): > 10 µM | inhibition [6]: > 99% | Stability (Plasma): Unstable | IC50 ([1]; read-out: IC50): 90 nM | INH (Cytochrome P450 2D6): > 10 µM

COc1cccc(NC(=O)c2cc3n(n2)CCCC3)n1
IC50 ([1]; hek293): Not Active

Cc1nc(C#Cc2cccnc2)cs1
Activity (Rattus norvegicus): Active

N#Cc1cccnc1NC(=O)c1cc2n(n1)CCCC2
IC50 ([1]; hek293): Not Active

O=C(Nc1ccc(Cl)cn1)c1cc2n(n1)CCCC2
IC50 ([1]; read-out: IC50): 262 nM

Clc1cccc(COc2cc3n(n2)CCCC3)n1
IC50 ([1]; read-out: IC50): 5900 nM

N#Cc1ccc(CC(=O)c2cc3n(n2)CCCC3)nc1
INH (Cytochrome P450 3A4): > 10 µM | INH (Cytochrome P450 2C9): > 10 µM | INH [3]: 139 nM | microsomal CLint [4]: 46 µL/min/mg | solubility kinetic [5]: 30 µg/mL (≈ 113 µM) | INH (Cytochrome P450 1A2): > 10 µM | inhibition [6]: > 99% | IC50 ([1]; read-out: IC50): 53 nM | microsomal CLint [7]: 108 µL/min/mg | solubility kinetic [8]: 80 µg/mL (≈ 300 µM) | INH (Cytochrome P450 2D6): > 10 µM

Cc1ccnc(NC(=O)c2cc3n(n2)CCCC3)c1
IC50 ([1]; hek293): Not Active

N#Cc1ccc(CC(=O)c2nn3c(c2C#N)CCCC3)nc1
IC50 ([1]; read-out: IC50): 5380 nM

Cc1cccc(COc2cc3n(n2)CCCC3)c1
IC50 ([1]; read-out: IC50): 769 nM

Cc1cc(C(=O)Nc2ccc(C#N)cn2)nn1C
microsomal CLint [4]: < 5 µL/min/mg | inhibition [6]: > 99% | IC50 ([1]; read-out: IC50): 2620 nM | microsomal CLint [7]: < 5 µL/min/mg

Clc1ccc(COc2cc3n(n2)CCCC3)nc1
IC50 ([1]; read-out: IC50): 1550 nM

Cc1cccnc1-c1cc2n(n1)CCCC2
IC50 ([1]; hek293): Not Active

N#Cc1ccc(CC(=O)c2nn3c(c2Cl)CCCC3)nc1
INH (Cytochrome P450 3A4): > 10 µM | INH (Cytochrome P450 2C9): > 10 µM | microsomal CLint [4]: 79 µL/min/mg | INH (Cytochrome P450 1A2): > 10 µM | inhibition [6]: > 99% | IC50 ([1]; read-out: IC50): 108 nM | microsomal CLint [7]: 649 µL/min/mg | INH (Cytochrome P450 2D6): > 10 µM

Clc1cccc(-c2cc3n(n2)CCCC3)n1
IC50 ([1]; read-out: IC50): 1520 nM

Clc1cccc(-c2cc3n(n2)CCCC3)c1
INH [3]: 401 nM | microsomal CLint [4]: 386 µL/min/mg | solubility kinetic [5]: 20 µg/mL (≈ 85.9 µM) | INH (Cytochrome P450 1A2): < 0.75 µM | inhibition [6]: > 99% | IC50 ([1]; read-out: IC50): 77 nM | microsomal CLint [7]: 384 µL/min/mg | solubility kinetic [8]: 110 µg/mL (≈ 473 µM)

O=C(Nc1cccc(C(F)(F)F)n1)c1cc2n(n1)CCCC2
IC50 ([1]; hek293): Not Active

CN(C(=O)c1cc2n(n1)CCCC2)c1ccccn1
IC50 ([1]; hek293): Not Active

FC(F)(F)c1cccc(-c2cc3n(n2)CCCC3)c1
IC50 ([1]; read-out: IC50): 3990 nM

O=C(Nc1ncccc1O)c1cc2n(n1)CCCC2
IC50 ([1]; read-out: IC50): > 10000 nM

COc1cccc(-c2cc3n(n2)CCCC3)c1
IC50 ([1]; read-out: IC50): 4500 nM

N#Cc1ccccc1COc1cc2n(n1)CCCC2
IC50 ([1]; hek293): Not Active

N#Cc1cccc(COc2cc3n(n2)CCCC3)c1
IC50 [2]: 451 nM

Cc1cccc(NC(=O)c2cc3n(n2)CCCC3)n1
IC50 ([1]; hek293): Not Active

Nc1cccc(COc2cc3n(n2)CCCC3)n1
IC50 ([1]; hek293): Not Active

Clc1ccnc(-c2cc3n(n2)CCCC3)c1
IC50 ([1]; read-out: IC50): 675 nM

Clc1ccc(-c2cc3n(n2)CCCC3)nc1
IC50 ([1]; read-out: IC50): 669 nM

Clc1ccccc1-c1cc2n(n1)CCCC2
IC50 ([1]; read-out: IC50): 2650 nM

N#Cc1ccc(NC(=O)c2cc3ccccn3n2)nc1
IC50 ([1]; read-out: IC50): 1810 nM

O=C(Nc1cccc(F)n1)c1cc2n(n1)CCCC2
IC50 ([1]; read-out: IC50): 4740 nM

O=C(Nc1ccc(F)cn1)c1cc2n(n1)CCCC2
INH (Cytochrome P450 3A4): > 10 µM | INH (Cytochrome P450 2C9): > 10 µM | INH [3]: 166 nM | microsomal CLint [4]: 31 µL/min/mg | solubility kinetic [5]: 40 µg/mL (≈ 154 µM) | INH (Cytochrome P450 1A2): > 10 µM | inhibition [6]: > 99% | Stability (Plasma): Unstable | IC50 ([1]; read-out: IC50): 60 nM | solubility kinetic [8]: 100 µg/mL (≈ 384 µM) | INH (Cytochrome P450 2D6): > 10 µM

c1ccc(-c2cc3n(n2)CCCC3)cc1
IC50 ([1]; read-out: IC50): 1890 nM

N#Cc1ccnc(NC(=O)c2cc3n(n2)CCCC3)c1
IC50 ([1]; hek293): Not Active

Nc1ccc(NC(=O)c2cc3n(n2)CCCC3)nc1
IC50 ([1]; hek293): Not Active

c1ccc(COc2cc3n(n2)CCCC3)nc1
IC50 ([1]; read-out: IC50): 2500 nM
